Measured values reported in ChEMBL document CHEMBL4304782, “Antioxidant, Anti-inflammatory, and Neuroprotective Effects of Novel Vinyl Sulfonate Compounds as Nrf2 Activator” (ACS Med Chem Lett, 2019).

Target: T1, Nuclear factor erythroid 2-related factor 2 (Homo sapiens, UniProt Q16236)
T1 sequence (Q16236 whole entry): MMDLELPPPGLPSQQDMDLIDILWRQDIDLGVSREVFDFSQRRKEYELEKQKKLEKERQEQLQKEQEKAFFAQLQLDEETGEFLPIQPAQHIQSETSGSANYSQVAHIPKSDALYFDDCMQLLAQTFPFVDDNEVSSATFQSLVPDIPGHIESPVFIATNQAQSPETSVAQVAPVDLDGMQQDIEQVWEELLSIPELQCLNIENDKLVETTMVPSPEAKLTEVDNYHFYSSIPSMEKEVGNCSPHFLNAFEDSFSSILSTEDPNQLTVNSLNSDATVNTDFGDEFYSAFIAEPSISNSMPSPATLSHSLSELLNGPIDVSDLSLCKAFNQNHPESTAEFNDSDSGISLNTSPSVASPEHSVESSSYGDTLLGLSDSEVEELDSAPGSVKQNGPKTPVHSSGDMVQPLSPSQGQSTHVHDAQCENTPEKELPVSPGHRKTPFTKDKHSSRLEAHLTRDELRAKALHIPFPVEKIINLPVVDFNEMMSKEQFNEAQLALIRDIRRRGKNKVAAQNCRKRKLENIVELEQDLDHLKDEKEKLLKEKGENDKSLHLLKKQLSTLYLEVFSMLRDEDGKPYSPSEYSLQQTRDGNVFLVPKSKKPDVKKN
Experiment: Activation of ED-tagged Nrf2 in human U2OS cells co-expressing Keap1 assessed as induction of NRF2 translocation to nucleus after 6 hrs by beta-galactosidase based chemiluminescent assay
Type: cell-based

EC50: 6.35 µM
SMILES: COc1ccccc1NS(=O)(=O)/C=C/c1ccccc1Cl
